Test results as given in US10307411B2, “Use of cotinine in treating or preventing neurogenesis deficits and enhancing neurogenesis” (Department of Veterans Affairs, priority 2014, dated 2019).

What was measured:
[1] = Novel location recognition test (NOL), spatial recognition memory in rats subjected to CMF chemotherapy; assay type: in vivo, Wistar female rats; settings: CMF-treated rats, cotinine 5 mg/kg oral
Description: Wistar female rats (2-4 months of age, 200-300 g) (n=10/group) were obtained from Harlan laboratories. Rats were housed in pairs, kept at 12 h light/12 h dark cycle and maintained in an air-conditioned room at a temperature of 21±1° C. and relative humidity of 60±10%. Food and water were available ad libitum. All rats were acclimated to the Veterinary Medical Unit for 1 week and handled daily. Weight was recorded every 2 days to assess for dehydration induced by the chemotherapy regime. All procedures were approved by the Institutional Animal Care and Use (IACUC) committee of the Bay Pines Veterans Affairs (VA) Healthcare System, in accordance with VA and The Guide for the Care and Use of Laboratory Animals. […]
This task evaluates spatial recognition memory and is based on the preferential exploration of a displaced object by rodents able to detect a novel placement of an object after remembering each object's original positions (Ennaceur A, Delacour J (1988) A new one-trial test for neurobiological studies of memory in rats. 1: Behavioral data. Behav Brain Res 31(1):47-59). […] The discrimination index (DI), which is a measure of spatial recognition memory, was calculated as follows: time spent exploring the object in the new location/total time spent exploring both objects.
Differences among the means were analyzed using one-way analysis of variance (ANOVA). […]

[2] = system: Salmonella; settings: 0-1000 μg/plate; cited from earlier work
[3] = clinical studies, doses up to 1.5 mg cotinine base/kg; cited from earlier work
[4] = system: 17-ketosteroid reductase; settings: in vitro; cited from earlier work
[5] = biological target: T1, aromatase (Homo sapiens, UniProt P11511); settings: in vitro; cited from earlier work
T1 sequence (P11511 1-503): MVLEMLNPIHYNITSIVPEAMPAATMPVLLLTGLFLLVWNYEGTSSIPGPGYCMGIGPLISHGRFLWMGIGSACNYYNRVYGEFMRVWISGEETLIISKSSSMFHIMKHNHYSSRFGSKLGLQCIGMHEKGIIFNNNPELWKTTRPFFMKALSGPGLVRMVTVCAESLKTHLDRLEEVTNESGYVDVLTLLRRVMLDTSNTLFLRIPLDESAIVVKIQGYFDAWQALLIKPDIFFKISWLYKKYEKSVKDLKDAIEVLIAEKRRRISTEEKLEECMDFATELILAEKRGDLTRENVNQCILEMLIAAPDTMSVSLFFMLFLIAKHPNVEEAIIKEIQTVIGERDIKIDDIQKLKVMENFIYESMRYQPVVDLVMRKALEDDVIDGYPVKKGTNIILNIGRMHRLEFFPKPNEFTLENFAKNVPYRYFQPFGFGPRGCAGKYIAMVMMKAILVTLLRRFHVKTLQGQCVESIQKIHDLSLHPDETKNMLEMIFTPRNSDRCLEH

[6] = administered in the drinking water for 78 weeks; rats initiated with FANFT; cited from earlier work
[7] = system: monocytes; settings: α7nAChR-dependent; cited from earlier work

**Q.** With `CN1C(=O)CC[C@H]1c1cccnc1` [cotinine, (5S)-1-methyl-5-(3-pyridyl) pyrrolidin-2-one] as the compound, how does the “ability to discriminate between old and new location of objects (discrimination index)” value [1] read?
**A.** The value was “restored the ability”.

**Q.** What about the “location discrimination level compared with control rats” value ([1]; p>0.05) of the same compound?
**A.** Its value is “indistinguishable from control rats”.

**Q.** And the “genotoxic effects, Salmonella mutagenicity” value [2]?
**A.** The value was “no genotoxic effects”.

**Q.** What about the “recall of a short list” value [3] of the same compound?
**A.** The value was “did not affected the recall”.

**Q.** And the “recall on the long list on a verbal recall task” value [3]?
**A.** The value was “impaired recall”.

**Q.** And the “inhibition of 17-ketosteroid reductase” value [4]?
**A.** The value was “inhibiting”.

**Q.** And the inhibition of aromatase [5]?
**A.** The inhibition of aromatase was “inhibiting”.

**Q.** What about the “carcinogenicity / promotion of urinary bladder tumors” value [6] of the same compound?
**A.** Its value is “neither carcinogenic nor promoted urinary bladder tumors”.

**Q.** And the “inflammatory response to gram-negative bacteria (expression of TNF-α, IL-1β and IL-6)” value [7]?
**A.** The value was “reduced the inflammatory response”.
